Legend:
irradiated mice (AGS) = settings: cited from earlier work; for dose of peak response: AGS, LD50/7 or crypt assay
[1] = tested on: proliferating crypts of small intestine; settings: comparison stated for native FGFs; cited from earlier work
FGF receptor = settings: cited from earlier work
[2] = tested on: bovine aortic endothelial cells; settings: in vitro; cited from earlier work
[3] = in animals; cited from earlier work
[4] = Stool hemoccult score after sub-TBI; assay type: in vivo, mouse (Balb/c, C57BL/6); settings: Balb/c, 12.5 Gy sub-TBI; FGF-P 2 mg/kg im 15 min post irradiation; Amifostine iv 30 min pre-irradiation; P<0.05
From the text: There are commonly employed assays known to be relevant to both mouse and man for determining relative endpoints. These include: 1) stool blood: mucosal barrier breakdown is associated with bleeding of the small bowel; therefore, a hemoccult analysis with a commercial kit (BD Cat #64151) was used in the preliminary data at 3 days after sub-TBI. The time course and frequency of GI bleeding; 2) stool formation: the GI functions of digestion, absorption of nutrition and water, and the regular movement of intestinal muscle are required for formation of normal stool can be measured. All these functions can be upset by radiation. For example, loss of villi leads to decreased fluid absorption and diarrhea. The colon was excised and examined visually for the presence of formed stool at 3.5 days post-IR; 3) endotoximia: bacterial translocation can occur at early times following gastrointestinal radiation exposure.
2) A standard scoring scale was used to evaluate stool formation (diarrhea). The bowel was extracted from the abdomen and visually inspected. Formed stool was easily distinguished from semi-solid and liquid stool as it passed from the ascending to descending colon. FIGS. 7B and 7C show the irradiated bowel in controls compared with FGF-P-treated Balb/c mice. The FGF-P was given at a dose of 2 mg/kg im for three daily doses beginning 15 min after irradiation. […]

[5] = Plasma endotoxin after sub-TBI (tachypleus amebocyte lysate kit); assay type: in vivo, mouse (Balb/c, C57BL/6); settings: Balb/c, 10.5 Gy
Method: Some studies have employed bacterial culture of liver samples. Bacterial translocation occurs due to mucosal barrier changes (1) at the level of the basement membrane and (2) bowel mucous volume and composition. The most reliable and most clinically applicable method to measure bacterial translocation is the endotoxin assay. The level of plasma endotoxin 3.5 days post-IR was measured with a commercialized kit that utilized tachypleus amebocyte lysate to sensitively quantitate endotoxin at extremely low levels (<0.01 EU/ml); and 4) body weight (BW): poor nutrition and water absorption will result in reduced body weight. The rate and severity of weight loss, as well as the pace of body weight recovery, will be measured.
2) A standard scoring scale was used to evaluate stool formation (diarrhea). The bowel was extracted from the abdomen and visually inspected. Formed stool was easily distinguished from semi-solid and liquid stool as it passed from the ascending to descending colon. FIGS. 7B and 7C show the irradiated bowel in controls compared with FGF-P-treated Balb/c mice. The FGF-P was given at a dose of 2 mg/kg im for three daily doses beginning 15 min after irradiation. Animals were sacrificed 3.5 days after 10.5 Gy sub-TBI.

MCP-1, IL-6, TNFα = experiment: Plasma inflammatory molecules after sub-TBI (Luminex bead array); assay type: in vivo, mouse (Balb/c); settings: Balb/c, 12 Gy sub-TBI
Method: Bead array technology has been developed to facilitate the study of cytokine expression profiles in normal tissues following radiation. Bead arrays have several advantages over ELISA. First, mice have a limited blood volume (0.3-0.4 ml of plasma/mouse). Each ELISA typically requires approximately 0.1 ml and thus only a limited number of assays are possible. Secondly, the time required to perform ELISAs one by one stresses the system in a large experiment and would be difficult to perform in the field in case of a radiological event. The Luminex bead array technology was used. The paired monoclonal antibodies, the highly-purified protein standards, and the more than 50 different cytokinespecific beads were purchased. In these studies, Balb/c mice received 12 Gy sub-TBI and then im injection of vehicle alone (0.2 ml of saline), FGF-P (2 mg/kg at 10 min post-IR and daily for two days), or Amifostine (200 mg/kg, either 30 min before IR, or 10 min after IR). The samples were collected 3.5 days after IR.
All three of these cytokines are associated with increased severity and progression of radiation-related inflammatory toxicity in mouse and man.

[6] = tested on: proliferating crypts of small intestine; experiment: Crypt assay of small intestine after sub-TBI (H&E, BrdU, villi length); assay type: in vivo, mouse (Balb/c, C57BL/6); settings: Balb/c
From the text: Enhanced proliferation of crypts in small intestine: The epithelium of the small intestine has a rapid turnover, renewing every 3-7 days. The stem cells are located ⅓ of the way up the […] and active mitosis can be seen above growing into the villus and below, forming the crypt. There are no definitive markers available to identify the stem cells, and thus the number of these cells in each crypt are unknown. When the bowel is irradiated, the number of crypts remains constant up to a dose just below the LD50/7. Above that dose, there is a log-linear decrease in the number of crypts, usually measured at 3.5 days. […] Data from the crypt assay can be augmented with injection of BrdU. BrdU can be given to animals at one or more times after irradiation to determine the rate of proliferation and rate of elongation of villi.
FGF-P was then repeated daily for 2 days. At 80 hr post-IR, BrdU (120 mg/kg) was injected ip and 4 hours later (about 3.5 days post-IR), the mice were sacrificed and the duodenal, jejunal and ileal segments (3-4 pieces/segment) were harvested, fixed in formalin, processed in paraffin blocks, cut in transverse sections of the full segment circumference (5 μm thick) and stained with H&E or anti-BrdU following the standard immunochemistry procedure (23). The proliferating crypts were defined as containing 10 or more adjacent chromophilic non-Paneth cells and a lumen. The circumference of a transverse cross-section of the intestine was used as a unit. The number of proliferating crypts was counted in each circumference. At least 10 circumferences were scored per mouse and 4-5 mice were used to generate each data point.
The villi length of duodenum, jejunum and ileum was measured using a customized Imaging Pro program.

Cdc42, Rac1, Mapk10, Cfl = experiment: Gene expression in irradiated BM cells (Luminex multiplex array); assay type: cell-based, mouse; settings: treatment 20 min after 5 Gy IR, 6 hours, P<0.05

| Compound | dose of peak response (irradiated mice (AGS)) | crypt survival [1] | binding to FGF receptor (FGF receptor) | downstream signaling (FGF receptor) | cell proliferation and radiation-induced apoptosis [2] | radio-protective effects [3] | other results |
| --- | --- | --- | --- | --- | --- | --- | --- |
| FGF-1: acidic fibroblast growth factor, human protein | approximately 6 μg/mouse | approximately doubles crypt survival | – | – | – | – | – |
| RFHSWDCIKTWASDTFVLVCYDDGSEA [F2A3, synthetic peptide that mimics FGF-2] | – | – | equivalent to native bFGF | as effectively as bFGF | trigger cell proliferation and block radiation-induced apoptosis similar to bFGF | radio-protective effects similar to bFGF | – |
| YRSRKYSSWYVALKR [F2A4, synthetic peptide that mimics FGF-2] | – | – | equivalent to native bFGF | as effectively as bFGF | trigger cell proliferation and block radiation-induced apoptosis similar to bFGF | radio-protective effects similar to bFGF | – |
| NCCCNCCSP(=O)(O)O [Amifostine] | – | – | – | – | – | – | stool hemoccult score [4]: reduced stool hemoccult score; plasma endotoxin level ([5]; Amifostine given after irradiation): 2.87 EU/ml; plasma endotoxin level (mean) ([5]; Amifostine iv 30 min before IR): 0.93 EU/ml; plasma MCP-1, IL-6 and TNFα (MCP-1, IL-6, TNFα; Amifostine 200 mg/kg 10 min after IR): no benefit; plasma MCP-1, IL-6 and TNFα (MCP-1, IL-6, TNFα; Amifostine 200 mg/kg 30 min before IR): beneficial response; crypt numbers in the ileum ([6]; 12 Gy, Amifostine given after irradiation): no effect when given after irradiation; crypt numbers in the ileum ([6]; 3.5 days after 12 Gy, Amifostine 200 mg/kg iv 30 min before sub-TBI): level of protection matched that obtained for Amifostine |
| FGF-2: basic fibroblast growth factor, native full length human protein | approximately 6 μg/mouse | approximately doubles crypt survival | – | – | – | – | dose with benefit (irradiated mice (AGS); human FGF-2 in mice): 1 μg/mouse; expression of Cdc42 (Cdc42, Rac1, Mapk10, Cfl): reversed the IR-suppressed expression; expression of Cfl (cofilin 1) (Cdc42, Rac1, Mapk10, Cfl): suppressed towards normal; expression of Mapk10 (Cdc42, Rac1, Mapk10, Cfl): suppressed towards normal; expression of Rac1 (Cdc42, Rac1, Mapk10, Cfl): reversed the IR-suppressed expression |

— patent US8871900B2, “Fibroblast growth factor (FGF) analogs and uses thereof” (University of Rochester, priority 2008, dated 2014)
